From patent publication US20050096259A1, “Neutrophil activation by immune response modifier compounds” (3M Innovative Properties Company, priority 2003, published 2005) come the findings set out here.

SMILES strings stand for the structures.

The test system of the assay is TLR8, TLR7. Nature of the assay: TLR agonism classification (TLR8 versus TLR7 agonist). The format is cell-based. The conditions noted are these: classification in words; agonist of TLR8 but not TLR7 = TLR8-selective; no numeric data given. The text has this: The TLR agonism for a particular compound may be assessed in any suitable manner. […] The assay used to assess the agonism of a compound with respect to one TLR may be the same as, or a different than, the assay used to assess the agonism of the compound with respect to another TLR.
Similarly, a compound may be identified as not acting as a TLR7 agonist (i.e., a TLR7 non-agonist) if, when used to perform an assay designed to detect TLR7-mediated biological activity, the compound fails to elicit a threshold increase in TLR7-mediated biological activity. […] An assay may or may not be performed in conjunction with the appropriate control.
Assays employing HEK293 cells transfected with an expressible TLR structural gene may use a threshold of, for example, at least a three-fold increase in a TLR-mediated biological activity (e.g., NFKB activation) when the compound is provided at a concentration of, for example, from about 1 μM to about 30 μM for identifying a compound as an agonist of the TLR transfected into the cell. However, different thresholds and/or different concentration ranges may be suitable in certain circumstances. Also, different thresholds may be appropriate for different assays.
With `CCc1nc2c(N)nc3ccccc3c2n1CCCCNS(C)(=O)=O` [Compound 3, N-[4-(4-amino-2-ethyl-1H-imidazo[4,5-c]quinolin-1-yl)butyl]methanesulfonamide], the “TLR agonist selectivity (TLR7/TLR8) as stated for the compound” value is listed as “TLR7-selective agonist”. Then `CCOCc1nc2c(N)nc3c(c2n1CC(C)(C)O)CCCC3` [Compound 2, 4-amino-2-(ethoxymethyl)-α,α-dimethyl-6,7,8,9-tetrahydro-1H-imidazo[4,5-c]quinoline-1-ethanol], with “TLR7/8 agonist”; and `CCCCCCCCCCCCCCCC(=O)NCCOCCn1c(CCOC)nc2c(N)nc3ccccc3c21` [Compound 5, N-(2-{2-[4-amino-2-(2-methoxyethyl)-1H-imidazo[4,5-c]quinolin-1-yl]ethoxy}ethyl)hexadecanamide], with “TLR8-selective agonist”; and `CCOCc1nc2c(N)nc3ccccc3c2n1CCNS(C)(=O)=O` [Compound 6, N-{2-[4-amino-2-(ethoxymethyl)-1H-imidazo[4,5-c]quinolin-1-yl]ethyl}methanesulfonamide], with “TLR8-selective agonist”. On to `CC(C)Cn1cnc2c(N)nc3ccccc3c21` [Compound 4, 1-(2-methylpropyl)-1H-imidazo[4,5-c]quinolin-4-amine, reference compound], for which the “TLR agonist selectivity (TLR7/TLR8) as stated for the compound” value is recorded as “TLR7-selective agonist”.
